Test results from US20220305012A1, “L[…] TREATING SLEEP ISSUES” (EISAI R&D MANAGEMENT CO., LTD., priority 2019, published 2022).
Where two headings read alike, the source gives them in different places.

Assays:
Type in all cases: in vivo, human
[1] = Example 1: plasma concentrations of lemborexant and metabolites; conditions: for concentration at 1 month / concentration at 3 month / concentration at 6 month: human, plasma
Protocol: (§1) Month 1 Assessment: Standard safety assessments were performed on the subject. A blood sample was collected for determination of plasma concentration of lemborexant and its metabolites, and the ISI, FSS, PGI-Insomnia, EQ-5D-3L, and eC-SSR were completed.
(§2) Month 3 Assessment: All assessments conducted at the Month 1 Assessment were repeated.
(§3) Month 6 Assessment: All assessments conducted at the Month 1 Assessment were repeated, and subjects completed the WPAI-GH.

[2] = test system: Subjects Having Insomnia Disorder; test: Example 1: Insomnia Severity Index Daytime Functioning (Items 4-7)
From the text: As used herein, the term “Insomnia Severity Index”, abbreviated as “ISI”, is an index calculated using a 7-item, self-report questionnaire assessing the nature, severity, and impact of insomnia (see Bastien, C. H., et al. “Validation of the Insomnia Severity Index as an outcome measure for insomnia research.” Sleep Med. 2001; 2(4): 297-307). The questionnaire evaluates: (1) severity of sleep onset; (2) sleep maintenance; (3) early morning awakening problems; (4) sleep dissatisfaction; (5) interference caused by sleep difficulties with daytime functioning; (6) noticeability of sleep problems by others; and (7) distress caused by the sleep difficulties. A 5-point scale is used to rate each item (0=no problem to 4=very severe problem) yielding a total score from 0 to 28. Total ISI score (items (1)-(7)) and daytime functioning (items (4)-(7)) are analyzed separately.
as §1, §2, §3
In addition to the aforementioned study endpoints, the study included several additional secondary endpoints: • Mean change from study baseline of subjective sleep onset latency, subjective sleep efficiency, subjective wake after sleep onset, and subjective total sleep time at the beginning of treatment (mean of the 7 nights after the first dose in Period 1), at Month 1 and at Month 3. • Mean change from study baseline of subjective total sleep time at Month 6. • Change from study baseline in daytime functioning, assessed as the total score from the 4 items on daytime functioning, on the Insomnia Severity Index, at Months 1, 3, and 6.

[3] = test system: Subjects Having Insomnia Disorder; test: Example 1: Quality of Sleep rating (scale 1 to 9); conditions: for Quality of Sleep score, Mean (SD): Baseline; for Quality of Sleep score, Treatment difference (vs placebo): change from baseline at Month 6
From the text: In some embodiments, sleep diaries were used to assess sleep parameters reported by subjects (i.e., subjective assessments) including subjective sleep onset latency (sSOL), subjective sleep efficiency (sSE), subjective WASO (sWASO), and subjective total sleep time (sTST). Subjects were instructed to complete the Sleep Diary developed based on the consensus Sleep Diary as described in Carney et al., “The consensus sleep diary: standardizing prospective sleep self-monitoring,” Sleep 2012; 35(2):287-302. In some embodiments, the Sleep Diary was used to assess the subject's global perception of quality of sleep on the previous night with the following question: “How would you rate the quality of your sleep last night?” Subjects rated the quality of their sleep on a scale from 1 to 9, with 1 being extremely poor and 9 being extremely good. In some embodiments, the Sleep Diary was used to assess subjective ratings of morning sleepiness with the following question: “How alert/sleepy do you feel this morning?” Subjects rated their sleepiness/alertness level on a Likert scale from 1 to 9, with 1 being extremely sleepy and 9 being extremely alert.
Treatment period 1 began with the first dose of randomized study medication (placebo, 5 mg of lemborexant, or 10 mg of lemborexant). Subjects completed sleep diaries daily in the morning, within one hour of waketime. The subjects were assessed by a clinician one month, two months, three months, and six months after initiation of Treatment period 1.

For `Cc1ncc(OC[C@@]2(c3cccc(F)c3)C[C@H]2C(=O)Nc2ccc(F)cn2)c(C)n1` [Lemborexant, (1R,2S)-2-(((2,4-dimethylpyrimidin-5-yl)oxy)methyl)-2-(3-fluorophenyl)-N-(5-fluoropyridin-2-yl)cyclopropanecarboxamide], the concentration at 1 month ([1]; 10 mg, lemborexant 10 mg dose, Month 1, read-out: Plasma concentration, Mean (SD)) was 16.3 ng/mL, the concentration at 1 month ([1]; 10 mg, lemborexant 10 mg dose, Month 1, read-out: Plasma concentration, Median) was 15.1 ng/mL and the concentration at 3 month ([1]; 10 mg, lemborexant 10 mg dose, Month 3, read-out: Plasma concentration, Mean (SD)) was 15.6 ng/mL. It also gave a concentration at 3 month ([1]; 10 mg, lemborexant 10 mg dose, Month 3, read-out: Plasma concentration, Median) of 15.1 ng/mL, a concentration at 6 month ([1]; 10 mg, lemborexant 10 mg dose, Month 6, read-out: Plasma concentration, Mean (SD)) of 15.2 ng/mL and a concentration at 6 month ([1]; 10 mg, lemborexant 10 mg dose, Month 6, read-out: Plasma concentration, Median) of 14.5 ng/mL. The concentration at 1 month ([1]; oral, 5 mg, lemborexant 5 mg dose, Month 1, read-out: Plasma concentration, Mean (SD)) was 9 ng/mL, the concentration at 1 month ([1]; oral, 5 mg, lemborexant 5 mg dose, Month 1, read-out: Plasma concentration, Median) was 7.6 ng/mL and the concentration at 3 month ([1]; oral, 5 mg, lemborexant 5 mg dose, Month 3, read-out: Plasma concentration, Mean (SD)) was 8.4 ng/mL. For the same compound, the concentration at 3 month ([1]; oral, 5 mg, lemborexant 5 mg dose, Month 3, read-out: Plasma concentration, Median) was 7.7 ng/mL, the concentration at 6 month ([1]; oral, 5 mg, lemborexant 5 mg dose, Month 6, read-out: Plasma concentration, Mean (SD)) was 7.9 ng/mL and the concentration at 6 month ([1]; oral, 5 mg, lemborexant 5 mg dose, Month 6, read-out: Plasma concentration, Median) was 6.9 ng/mL. For the same compound, the “Plasma concentration BLQ (<0.0500 ng/mL)” value ([1]; lemborexant 5 mg dose, Month 1) was 31 (10.5) n (%), the “Plasma concentration BLQ (<0.0500 ng/mL)” value ([1]; lemborexant 5 mg dose, Month 3) was 34 (12.6) n (%) and the “Plasma concentration BLQ (<0.0500 ng/mL)” value ([1]; lemborexant 5 mg dose, Month 6) was 45 (18.2) n (%). For the same compound, the “Plasma concentration BLQ (<0.0500 ng/mL)” value ([1]; lemborexant 10 mg dose, Month 1) was 21 (7.4) n (%), the “Plasma concentration BLQ (<0.0500 ng/mL)” value ([1]; lemborexant 10 mg dose, Month 3) was 29 (11.2) n (%) and the “Plasma concentration BLQ (<0.0500 ng/mL)” value ([1]; lemborexant 10 mg dose, Month 6) was 33 (14.6) n (%). The “ISI Daytime Functioning (Items 4-7), Mean” value ([2]; 5 mg, Month 1) was 7.2, the “ISI Daytime Functioning (Items 4-7), Median” value ([2]; 5 mg, Month 1) was 7.0 and the “ISI Daytime Functioning (Items 4-7), Mean” value ([2]; 5 mg, Month 3) was 6.2. The “ISI Daytime Functioning (Items 4-7), Median” value ([2]; 5 mg, Month 3) was 6.0, the “ISI Daytime Functioning (Items 4-7), Mean” value ([2]; 5 mg, Month 6) was 5.4 and the “ISI Daytime Functioning (Items 4-7), Median” value ([2]; 5 mg, Month 6) was 5.0. For the same compound, the “ISI Daytime Functioning Change from Study Baseline, Mean” value (from here on “ISI Daytime Functioning Change … Mean”) ([2]; 5 mg, Month 6) was −6.0, the “ISI Daytime Functioning Change from Study Baseline, Median” value (“ISI Daytime Functioning Change … Median” below) ([2]; 5 mg, Month 6) was −6.0 and the “ISI Daytime Functioning LSM treatment difference: Lemborexant/Placebo” value ([2]; 5 mg, Month 6) was −1.30. The “ISI Daytime Functioning (Items 4-7), Mean” value ([2]; 5 mg, Study Baseline) was 11.4, the “ISI Daytime Functioning (Items 4-7), Median” value ([2]; 5 mg, Study Baseline) was 11.0 and the “ISI Daytime Functioning Change … Mean” value ([2]; 5 mg, after 1 Month) was −4.1. For the same compound, the “ISI Daytime Functioning Change … Median” value ([2]; 5 mg, after 1 Month) was −3.0, the “ISI Daytime Functioning Change … Mean” value ([2]; 5 mg, after 3 Months) was −5.2 and the “ISI Daytime Functioning Change … Median” value ([2]; 5 mg, after 3 Months) was −5.0. For the same compound, the “ISI Daytime Functioning LSM treatment difference: Lemborexant/Placebo” value ([2]; 5 mg, change from Study Baseline after 1 Month) was −0.71, the “ISI Daytime Functioning LSM treatment difference: Lemborexant/Placebo” value ([2]; 5 mg, change from Study Baseline after 3 Months) was −1.16 and the “ISI Daytime Functioning (Items 4-7), Mean” value ([2]; 10 mg, Month 1) was 7.0. For the same compound, the “ISI Daytime Functioning (Items 4-7), Median” value ([2]; 10 mg, Month 1) was 7.0, the “ISI Daytime Functioning (Items 4-7), Mean” value ([2]; 10 mg, Month 3) was 6.0 and the “ISI Daytime Functioning (Items 4-7), Median” value ([2]; 10 mg, Month 3) was 5.0. The “ISI Daytime Functioning (Items 4-7), Mean” value ([2]; 10 mg, Month 6) was 5.4, the “ISI Daytime Functioning (Items 4-7), Median” value ([2]; 10 mg, Month 6) was 5.0 and the “ISI Daytime Functioning Change … Mean” value ([2]; 10 mg, Month 6) was −5.7. For the same compound, the “ISI Daytime Functioning Change … Median” value ([2]; 10 mg, Month 6) was −6.0, the “ISI Daytime Functioning LSM treatment difference: Lemborexant/Placebo” value ([2]; 10 mg, Month 6) was −1.32 and the “ISI Daytime Functioning (Items 4-7), Mean” value ([2]; 10 mg, Study Baseline) was 11.0. The “ISI Daytime Functioning (Items 4-7), Median” value ([2]; 10 mg, Study Baseline) was 11.0, the “ISI Daytime Functioning Change … Mean” value ([2]; 10 mg, after 1 Month) was −4.2 and the “ISI Daytime Functioning Change … Median” value ([2]; 10 mg, after 1 Month) was −4.0. For the same compound, the “ISI Daytime Functioning Change … Mean” value ([2]; 10 mg, after 3 Months) was −5.2, the “ISI Daytime Functioning Change … Median” value ([2]; 10 mg, after 3 Months) was −5.0 and the “ISI Daytime Functioning LSM treatment difference: Lemborexant/Placebo” value ([2]; 10 mg, change from Study Baseline after 1 Month) was −0.94. For the same compound, the “ISI Daytime Functioning LSM treatment difference: Lemborexant/Placebo” value ([2]; 10 mg, change from Study Baseline after 3 Months) was −1.36, the “Quality of Sleep score, Mean (SD)” value ([3]; 5 mg) was 4.0 (1.3) and the “Quality of Sleep score, Treatment difference (vs placebo)” value ([3]; 5 mg) was 0.28. The “Quality of Sleep score, Mean (SD)” value ([3]; 10 mg) was 4.0 (1.4), the “Quality of Sleep score, Treatment difference (vs placebo)” value ([3]; 10 mg) was 0.32 and the “quality of sleep compared with placebo” value ([3]; at 6 months (Table 8)) was “significantly improved”.
